# Test results taken from US8455397B2, “Penoxsulam as a turfgrass, vineyard and orchard floor herbicide” (Dow AgroSciences, LLC, priority 2005, dated 2013).
# What was measured:
# dandelion (TAROF) [1] = test: Postemergent granule herbicides, turfgrass field studies; assay type: in vivo, Taraxacum officinale
# Protocol: (§1) Field studies were conducted in established turfgrass sites containing a natural population of target broadleaf weeds. Replicated trials, containing a minimum of three replications and having individual plots ranging in size from 25 to 50 ft. sq (2.3 to 4.6 square meters), were initiated in the late spring when turf and weeds were actively growing. Granule treatments were uniformly applied to individual plots using a common hand-shaker method. Applications were made in the early morning when dew was present. Natural rainfall and supplemental irrigation were used to maintain healthy turf and active weed growth throughout the study period. Control of each weed species in the study site was made at 2, 4 and 8 weeks after treatment. Control was determined visually by comparing treated and untreated weeds and scored on a 0 to 100 percent scale where 0 corresponds to no control and 100 corresponds to complete kill.
# wild mustard (SINAR) = test: Pre-emergence orchard floor weeds, greenhouse study; assay type: in vivo, Sinapsis arvense; details: 28 Days After Application
# Protocol: (§2) Greenhouse studies were conducted by seeding species in a loam soil and applying the herbicides to the soil surface using a Cornwall 5 milliliter glass syringe fitted with a TeeJet TN-3 nozzle on an area basis Immediately following herbicide application the pots were irrigated over the top to move the herbicides into the seeding zone. Pots were kept well irrigated throughout the trial. A percent visual weed control assessment was taken 4 weeks after application. Control was determined visually by comparing treated and untreated pots and scored on a 0 to 100 percent scale where 0 corresponds to no control and 100 corresponds to complete kill, or no emergence.
# common groundsel (SENVU) = test: as above; assay type: in vivo, Senecio vulgaris; details: 28 Days After Application
# Protocol: as §2
# white clover (TRFRE) = test: Granule carrier/particle size, postemergent field study; assay type: in vivo, Trifolium repens L.
# Protocol: (§3) Greenhouse and field studies evaluated the effect of two granule carriers and two particles sizes on the postemergent broadleaf activity of penoxsulam. The two carriers were a 46-0-0 and 28-4-12 fertilizer blend and the particle sizes averaged 0.75 mm and 2.15 mm.
# as §1
# junglerice (ECHCO) = test: Pre-emergence weed nursery field study; assay type: in vivo, Echinochloa colonum; details: weed nursery in the field, 27 Days After Application
# Protocol: Field studies were conducted in a non-fumigated weed nursery trial. Weed species were planted in single strips with a row planter at 36 centimeter spacing. Plot size was 3.05×9.2 meters, 4 replicate plots per treatment. Weed species were seeded at appropriate depths and later the same day pre-emergent applications were made to the soil surface. Liquid applications were made using a backpack sprayer calibrated to deliver 187 liters per hectare (L/ha). Applications were made in Fresno, Calif. in June. Sprinkler irrigation was applied at regular intervals throughout study period. Control of each weed species in the study site was made 4 weeks after treatment. Control was determined visually by comparing treated and untreated weeds and scored on a 0 to 100 percent scale where 0 corresponds to no control and 100 corresponds to complete kill or no emergence.
# redstem filaree (EROCI) = test: Pre-emergence orchard floor weeds, greenhouse study; assay type: in vivo, Erodivam cicutarium; details: 28 Days After Application
# Protocol: as §2
# [2] = test system: broadleaf plantain (PLAMA); test: Granule carrier comparison, pre-emergence greenhouse study; assay type: in vivo, Plantago major L.; details: pre-emergent greenhouse
# Protocol: as §3
# (§4) Greenhouse studies were applied both post and pre-emergence to broadleaf weeds and sedge reared from seed or nutlet in 12.7″ (32.25 cm) by 8.8″ (22.35 cm) flats of a loam soil. Particle size and carrier were evaluated post emergence, carrier comparisons with the smaller particle size of 0.75 was evaluated pre-emergence. Stage of growth of species at post emergence application: PLAMA and TAROF in the 3 to 5 leaf stage, TRFRE in the 3rd tri-foliate stage and CYPES in the 3 to 4 leaf stage. Post emergence trial design was a replicated block, one species per flat, 3 replicate flats per treatment. Granule treatments were uniformly applied to individual flats on an area basis using a common hand-shaker method. Post emergence applications were made to the flat covering both soil and misted foliage. Trial was sub-irrigated daily, and watered over the top 1 time per week starting 7 days after application to simulate a natural rainfall event. Active weed growth was maintained throughout the study period. Weed control of each species in the post emergence study was assessed at 2, 3 and 4 weeks after treatment. Pre-emergence trial design was 2 species per flat, 4 replicate flats, block design. Pre-emergence applications were made to the soil surface using a common hand shaker method on an area basis. Overhead irrigation was maintained throughout the trial. Weed control of each species in the pre-emergence study was assessed at 2, 3, 4 and 5 weeks after application. Control was determined visually by comparing treated and untreated flats and scored on a 0 to 100 percent scale where 0 corresponds to no control and 100 corresponds to complete kill.
# dandelion (TAROF) [3] = test: as above; assay type: in vivo, Taraxacum officinale; details: pre-emergent greenhouse
# Protocol: as §3, §4
# yellow nutsedge (CYPES) = test: Granule carrier/particle size, post emergence greenhouse study; assay type: in vivo, Cypres esculentus L.; details: postemergent greenhouse
# Protocol: as §3, §4
# [4] = carrier 28-4-12, particle size 0.75 mm, 11.2 gai/Ha
# [5] = carrier 28-4-12, particle size 0.75 mm, 22.4 gai/Ha
# [6] = carrier 28-4-12, particle size 2.15 mm, 11.2 gai/Ha
# [7] = carrier 28-4-12, particle size 2.15 mm, 22.4 gai/Ha
# [8] = carrier 46-0-0, particle size 0.75 mm, 11.2 gai/Ha
# [9] = carrier 46-0-0, particle size 0.75 mm, 22.4 gai/Ha
# [10] = carrier 46-0-0, particle size 2.15 mm, 11.2 gai/Ha
# [11] = carrier 46-0-0, particle size 2.15 mm, 22.4 gai/Ha
# [12] = carrier 28-4-12, particle size 0.75 mm, 5.6 gai/Ha
# [13] = carrier 46-0-0, particle size 0.75 mm, 5.6 gai/Ha
smiles,measurement,setting,value
"COc1cnc(OC)n2nc(NS(=O)(=O)c3c(OCC(F)F)cccc3C(F)(F)F)nc12 [Penoxsulam, 2-(2,2-difluoroethoxy)-N-(5,8-dimethoxy[1,2,4]triazolo[1,5-c]-pyrimidin-2-yl)-6-(trifluoromethyl)benzenesulfonamide]",Mean Percent Weed Control,"dandelion (TAROF) [1]; Table I, 4 Weeks After Treatment, 5 sites, Penoxsulam 140 gai/Ha, Scotts Plus 2 1682+841 gae/Ha, Trimec 1121+516+112 gae/Ha",93%
same,Mean Percent Weed Control,"dandelion (TAROF) [1]; Table I, 8 Weeks After Treatment, 5 sites, Penoxsulam 140 gai/Ha, Scotts Plus 2 1682+841 gae/Ha, Trimec 1121+516+112 gae/Ha",87%
same,Mean Percent Weed Control,"dandelion (TAROF) [1]; Table III, 4 Weeks After Treatment, 22.4 gai/Ha, 6 sites",45%
same,Mean Percent Weed Control,"dandelion (TAROF) [1]; Table III, 4 Weeks After Treatment, 44.9 gai/Ha, 6 sites",61%
same,Mean Percent Weed Control,"dandelion (TAROF) [1]; Table III, 4 Weeks After Treatment, 67.3 gai/Ha, 6 sites",61%
same,Mean Percent Weed Control,"dandelion (TAROF) [1]; Table III, 4 Weeks After Treatment, 100 gai/Ha, 6 sites",69%
same,Mean Percent Weed Control,"dandelion (TAROF) [1]; Table III, 8 Weeks After Treatment, 22.4 gai/Ha, 6 sites",25%
same,Mean Percent Weed Control,"dandelion (TAROF) [1]; Table III, 8 Weeks After Treatment, 44.9 gai/Ha, 6 sites",45%
same,Mean Percent Weed Control,"dandelion (TAROF) [1]; Table III, 8 Weeks After Treatment, 67.3 gai/Ha, 6 sites",47%
same,Mean Percent Weed Control,"dandelion (TAROF) [1]; Table III, 8 Weeks After Treatment, 100 gai/Ha, 6 sites",57%
same,Pre-emergent Percent Mean Control,wild mustard (SINAR); 8.8 gai/Ha,79%
same,Pre-emergent Percent Mean Control,wild mustard (SINAR); 17.5 gai/Ha,91%
same,Pre-emergent Percent Mean Control,wild mustard (SINAR); 35 gai/Ha,98%
same,Pre-emergent Percent Mean Control,wild mustard (SINAR); 70 gai/Ha,98%
same,Pre-emergent Percent Mean Control,common groundsel (SENVU); 8.8 gai/Ha,95%
same,Pre-emergent Percent Mean Control,common groundsel (SENVU); 17.5 gai/Ha,100%
same,Pre-emergent Percent Mean Control,common groundsel (SENVU); 35 gai/Ha,100%
same,Pre-emergent Percent Mean Control,common groundsel (SENVU); 70 gai/Ha,100%
same,Percent Weed Control 26-27 DAA,white clover (TRFRE); [4],80%
same,Percent Weed Control 26-27 DAA,white clover (TRFRE); [5],97%
same,Percent Weed Control 26-27 DAA,white clover (TRFRE); [6],48%
same,Percent Weed Control 26-27 DAA,white clover (TRFRE); [7],70%
same,Percent Weed Control 26-27 DAA,white clover (TRFRE); [8],82%
same,Percent Weed Control 26-27 DAA,white clover (TRFRE); [9],95%
same,Percent Weed Control 26-27 DAA,white clover (TRFRE); [10],34%
same,Percent Weed Control 26-27 DAA,white clover (TRFRE); [11],78%
same,Pre-emergent Percent Mean Control,junglerice (ECHCO); 8.8 gai/Ha,88%
same,Pre-emergent Percent Mean Control,junglerice (ECHCO); 17.5 gai/Ha,94%
same,Pre-emergent Percent Mean Control,junglerice (ECHCO); 35 gai/Ha,100%
same,Pre-emergent Percent Mean Control,junglerice (ECHCO); 70 gai/Ha,100%
same,Pre-emergent Percent Mean Control,redstem filaree (EROCI); 8.8 gai/Ha,79%
same,Pre-emergent Percent Mean Control,redstem filaree (EROCI); 17.5 gai/Ha,97%
same,Pre-emergent Percent Mean Control,redstem filaree (EROCI); 35 gai/Ha,100%
same,Pre-emergent Percent Mean Control,redstem filaree (EROCI); 70 gai/Ha,100%
same,Percent Weed Control 35 DAA,[2]; [12],72%
same,Percent Weed Control 35 DAA,[2]; [4],82%
same,Percent Weed Control 35 DAA,[2]; [5],100%
same,Percent Weed Control 35 DAA,[2]; [13],76%
same,Percent Weed Control 35 DAA,[2]; [8],87%
same,Percent Weed Control 35 DAA,[2]; [9],94%
same,Percent Weed Control 35 DAA,dandelion (TAROF) [3]; [12],71%
same,Percent Weed Control 35 DAA,dandelion (TAROF) [3]; [4],96%
same,Percent Weed Control 35 DAA,dandelion (TAROF) [3]; [5],98%
same,Percent Weed Control 35 DAA,dandelion (TAROF) [3]; [13],77%
same,Percent Weed Control 35 DAA,dandelion (TAROF) [3]; [8],96%
same,Percent Weed Control 35 DAA,dandelion (TAROF) [3]; [9],96%
same,Percent Weed Control 27-30 DAA,yellow nutsedge (CYPES); [12],18%
same,Percent Weed Control 27-30 DAA,yellow nutsedge (CYPES); [4],37%
same,Percent Weed Control 27-30 DAA,yellow nutsedge (CYPES); [5],60%
same,Percent Weed Control 27-30 DAA,"yellow nutsedge (CYPES); carrier 28-4-12, particle size 2.15 mm, 5.6 gai/Ha",37%
same,Percent Weed Control 27-30 DAA,yellow nutsedge (CYPES); [6],25%
same,Percent Weed Control 27-30 DAA,yellow nutsedge (CYPES); [7],35%
same,Percent Weed Control 27-30 DAA,yellow nutsedge (CYPES); [13],18%
same,Percent Weed Control 27-30 DAA,yellow nutsedge (CYPES); [8],30%
same,Percent Weed Control 27-30 DAA,yellow nutsedge (CYPES); [9],65%
same,Percent Weed Control 27-30 DAA,"yellow nutsedge (CYPES); carrier 46-0-0, particle size 2.15 mm, 5.6 gai/Ha",3%
same,Percent Weed Control 27-30 DAA,yellow nutsedge (CYPES); [10],20%
same,Percent Weed Control 27-30 DAA,yellow nutsedge (CYPES); [11],42%
